From US20160168126A1, “CHEMICAL COMPOUNDS” (SYNGENTA LIMITED, priority 2013, published 2016)

Tested on: a variety of test species
Assay: Post-emergence herbicidal activity (glasshouse, sprayed 8 days after sowing, evaluated after 13 days)
Assay type: in vivo
Conditions: scale 0-5
Protocol: Seeds of a variety of test species were sown in standard soil in pots. After 8 days cultivation (post-emergence) under controlled conditions in a glasshouse (at 24/16° C., day/night; 14 hours light; 65% humidity), the plants were sprayed with an aqueous spray solution derived from the formulation of the technical active ingredient in acetone/water (50:50) solution containing 0.5% Tween 20 (polyoxyethelyene sorbitan monolaurate, CAS RN 9005-64-5). The test plants were then grown in a glasshouse under controlled conditions (at 24/16° C., day/night; 14 hours light; 65% humidity) and watered twice daily. After 13 days, the test was evaluated (5=total damage to plant; 0=no damage to plant).

| SMILES | Post-emergence herbicidal damage score, ABUTH (Abutilon theophrasti) (1000 g/ha) | Post-emergence herbicidal damage score, ALOMY (Alopecurus myosuroides) (1000 g/ha) | Post-emergence herbicidal damage score, AMARE (Amaranthus retroflexus) (1000 g/ha) | Post-emergence herbicidal damage score, ECHCG (Echinochloa crus-galli) (1000 g/ha) | Post-emergence herbicidal damage score, SETFA (Setaria faberi) (1000 g/ha) | Post-emergence herbicidal damage score, ZEAMX (Zea mays) (1000 g/ha) | Post-emergence herbicidal damage score, ABUTH (Abutilon theophrasti) (250 g/ha) | Post-emergence herbicidal damage score, ALOMY (Alopecurus myosuroides) (250 g/ha) | Post-emergence herbicidal damage score, AMARE (Amaranthus retroflexus) (250 g/ha) | Post-emergence herbicidal damage score, ECHCG (Echinochloa crus-galli) (250 g/ha) | Post-emergence herbicidal damage score, SETFA (Setaria faberi) (250 g/ha) | Post-emergence herbicidal damage score, ZEAMX (Zea mays) (250 g/ha) |
| --- | --- | --- | --- | --- | --- | --- | --- | --- | --- | --- | --- | --- |
| CC1=C(Cl)C(O)N(c2cc(C(C)(C)C)n(C)n2)C1=O (stereo not drawn) [Compound B2, 1-(5-tert-butyl-1-methyl-1H-pyrazol-3-yl)-4-chloro-5-hydroxy-3-methyl-1,5-dihydro-pyrrol-2-one] | 5 | 5 | 5 | 5 | 5 | 2 |  |  |  |  |  |  |
| CC1=C(Cl)C(O)N(c2cc(C(F)(F)F)n(C)n2)C1=O (stereo not drawn) [Compound B3] | 5 | 5 | 5 | 5 | 4 | 1 |  |  |  |  |  |  |
| CC1=C(Cl)C(O)N(c2cc(C(F)(F)C(F)(F)F)n(C)n2)C1=O (stereo not drawn) [Compound B4] | 5 | 4 | 5 | 4 | 3 | 0 |  |  |  |  |  |  |
| CC1=C(Cl)C(O)N(c2cc(C(C)C)n(C)n2)C1=O (stereo not drawn) [Compound B5] |  |  |  |  |  |  | 5 | 4 | 5 | 5 | 4 | 3 |
| C=CCC(C)(C)c1cc(N2C(=O)C(C)=C(Cl)C2O)nn1C (stereo not drawn) [Compound B6, 3-chloro-1-[5-(1,1-dimethylbut-3-enyl)-1-methyl-pyrazol-3-yl]-2-hydroxy-4-methyl-2H-pyrrol-5-one] | 5 | 5 | 5 | 5 | 5 | 2 |  |  |  |  |  |  |
| CC(C)=Cc1cc(N2C(=O)C(C)=C(Cl)C2O)nn1C (stereo not drawn) [Compound B7, 3-chloro-2-hydroxy-4-methyl-1-[1-methyl-5-(2-methylprop-1-enyl)pyrazol-3-yl]-2H-pyrrol-5-one] | 4 | 0 | 3 | 1 | 5 | 2 |  |  |  |  |  |  |
| CC1=C(Cl)C(O)N(c2cc(I)n(C)n2)C1=O (stereo not drawn) [Compound B8, 3-chloro-2-hydroxy-1-(5-iodo-1-methyl-pyrazol-3-yl)-4-methyl-2H-pyrrol-5-one] | 5 | 3 | 5 | 4 | 5 | 1 |  |  |  |  |  |  |
| CC1=C(Cl)C(O)N(c2cc(Cl)n(C)n2)C1=O (stereo not drawn) [Compound B9] | 5 | 4 | 5 | 5 | 5 | 1 |  |  |  |  |  |  |
| CC(C)=CCc1cc(N2C(=O)C(C)=C(Cl)C2O)nn1C (stereo not drawn) [Compound B10, 3-chloro-2-hydroxy-4-methyl-1-[1-methyl-5-(3-methylbut-2-enyl)pyrazol-3-yl]-2H-pyrrol-5-one] | 2 | 0 | 0 | 2 | 3 | 0 |  |  |  |  |  |  |
| CC1=C(Cl)C(O)N(c2cc(/C=C/C(C)(C)C)n(C)n2)C1=O (stereo not drawn) [Compound B11] | 0 | 0 | 0 | 0 | 0 | 0 |  |  |  |  |  |  |
| CC1=C(Cl)C(O)N(c2cc(CCC(C)C)n(C)n2)C1=O (stereo not drawn) [Compound B12] | 1 | 0 | 0 | 0 | 0 | 0 |  |  |  |  |  |  |
| CSc1cc(N2C(=O)C(C)=C(Cl)C2O)nn1C (stereo not drawn) [Compound B17] | 4 | 2 | 3 | 4 | 5 | 1 |  |  |  |  |  |  |
| CC1=C(Cl)C(O)N(c2nn(C)c3c2CCC3(C)C)C1=O (stereo not drawn) [Compound B18] | 5 | 4 | 5 | 5 | 5 | 4 |  |  |  |  |  |  |
| CC1=C(Cl)C(O)N(c2cc(S(C)(=O)=O)n(C)n2)C1=O (stereo not drawn) [Compound B20] | 5 | 3 | 5 | 4 | 5 | 0 |  |  |  |  |  |  |
| CC1=C(Cl)C(O)N(c2cc(C(C)(C)C#N)n(C)n2)C1=O (stereo not drawn) [Compound B23] | 4 | 3 | 5 | 5 | 4 | 1 |  |  |  |  |  |  |
| C/C=C\c1cc(N2C(=O)C(C)=C(Cl)C2O)nn1C (stereo not drawn) [Compound B24] | 5 | 3 | 5 | 4 | 5 | 1 |  |  |  |  |  |  |
| C=C(C)c1cc(N2C(=O)C(C)=C(Cl)C2O)nn1C (stereo not drawn) [Compound B25] | 5 | 4 | 5 | 5 | 5 | 2 |  |  |  |  |  |  |
| CC1=C(Cl)C(O)N(c2cc([S+](C)[O-])n(C)n2)C1=O (stereo not drawn) [Compound B26] | 5 | 4 | 5 | 5 | 5 | 4 |  |  |  |  |  |  |
| CC(C)=C(C)c1cc(N2C(=O)C(C)=C(Cl)C2O)nn1C (stereo not drawn) [Compound B27] | 4 | 1 | 1 | 0 | 3 | 0 |  |  |  |  |  |  |
| CC1=C(Cl)C(O)N(c2nn(C)c3c2CCCCC3(C)C)C1=O (stereo not drawn) [Compound B28] | 4 | 2 | 4 | 3 | 3 | 1 |  |  |  |  |  |  |
| CC1=C(Cl)C(O)N(c2nn(C)c3c2C2CCC3C2)C1=O (stereo not drawn) [Compound B29] | 5 | 4 | 5 | 5 | 5 | 3 |  |  |  |  |  |  |
| CC1=C(Cl)C(O)N(c2ccn(C)n2)C1=O (stereo not drawn) [Compound B31] | 0 | 1 | 3 | 1 | 1 | 1 |  |  |  |  |  |  |
